The values below are quoted from earlier work in publication PMC10778976, “BAY-3827 and SBI-0206965: Potent AMPK Inhibitors That Paradoxically Increase Thr172 Phosphorylation” (International Journal of Molecular Sciences, 2023).

Each structure is given as a SMILES string.

The target in series [1] is T1, LKB1 (human LKB1:STRADα:MO25α complex) (Homo sapiens, UniProt Q15831).
T1 construct: made in house
T1 sequence (Q15831 1-433): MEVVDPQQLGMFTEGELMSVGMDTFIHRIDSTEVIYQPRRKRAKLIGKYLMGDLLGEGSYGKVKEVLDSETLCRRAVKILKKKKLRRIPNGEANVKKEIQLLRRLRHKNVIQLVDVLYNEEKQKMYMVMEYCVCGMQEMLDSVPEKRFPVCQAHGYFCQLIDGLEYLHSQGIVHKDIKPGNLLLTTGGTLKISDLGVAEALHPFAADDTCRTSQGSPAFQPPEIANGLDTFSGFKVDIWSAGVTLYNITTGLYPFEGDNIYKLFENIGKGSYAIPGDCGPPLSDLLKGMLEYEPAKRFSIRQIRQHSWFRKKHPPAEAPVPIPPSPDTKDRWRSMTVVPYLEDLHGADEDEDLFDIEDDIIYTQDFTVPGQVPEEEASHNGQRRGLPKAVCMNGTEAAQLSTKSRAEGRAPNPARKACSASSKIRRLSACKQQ
T1 sequence (Q7RTN6 1-431 partner): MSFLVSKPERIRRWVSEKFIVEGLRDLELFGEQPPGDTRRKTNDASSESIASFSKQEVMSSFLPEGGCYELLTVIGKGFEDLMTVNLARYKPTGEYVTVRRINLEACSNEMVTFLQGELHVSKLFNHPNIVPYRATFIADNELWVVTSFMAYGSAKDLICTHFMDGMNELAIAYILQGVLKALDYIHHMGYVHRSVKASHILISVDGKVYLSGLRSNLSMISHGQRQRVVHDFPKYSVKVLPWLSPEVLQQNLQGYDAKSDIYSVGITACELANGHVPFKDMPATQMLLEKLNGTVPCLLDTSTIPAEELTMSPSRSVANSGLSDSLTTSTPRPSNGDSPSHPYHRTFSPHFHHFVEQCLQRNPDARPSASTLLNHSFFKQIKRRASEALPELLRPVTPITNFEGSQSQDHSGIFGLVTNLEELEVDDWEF
T1 sequence (Q9Y376 1-341 partner): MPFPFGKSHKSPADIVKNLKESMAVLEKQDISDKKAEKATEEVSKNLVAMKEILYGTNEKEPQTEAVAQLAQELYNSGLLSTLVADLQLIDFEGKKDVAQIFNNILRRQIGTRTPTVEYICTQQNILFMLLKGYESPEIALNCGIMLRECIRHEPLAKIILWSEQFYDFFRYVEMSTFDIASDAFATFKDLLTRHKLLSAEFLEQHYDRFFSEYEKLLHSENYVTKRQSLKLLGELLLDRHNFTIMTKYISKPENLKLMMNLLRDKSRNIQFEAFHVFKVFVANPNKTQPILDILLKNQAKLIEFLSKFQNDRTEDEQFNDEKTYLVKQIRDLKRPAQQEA
As to conditions: single fixed inhibitor concentration (0.25 µM); cited from earlier work.

In series [2] the test system is human AMPK (α2β1γ1 complex). The conditions noted are these: low ATP concentration (10 µM); read-out: IC50, inhibition of human AMPK (α2β1γ1 complex); cited from earlier work.

As to `CNC(=O)c1ccccc1Oc1nc(Nc2cc(OC)c(OC)c(OC)c2)ncc1Br` [SBI-0206965], in series [1], the “inhibition of LKB1” value is listed as “did not inhibit”. With `CCc1ccccc1C(=O)Nc1n[nH]c2c(C)c(F)c(C3C(C#N)=C(C)N(C)C(C)=C3C#N)cc12` [BAY-3827], the IC50 (usually the concentration at which inhibition is half-maximal) in series [2] is 1.4 nM.
